Measured values as given in patent US10189809B2, “SGC stimulators” (Ironwood Pharmaceuticals, Inc., priority 2010, dated 2019).
Where two headings read alike, the source gives them in different places.

Columns and labels:
[1] = target: T1, soluble guanylate cyclase (sGC) (Homo sapiens (Human), UniProt Q02108+Q02153); assay: sGC-HEK-cGMP assay run in the absence of SNP (HEK WC assay); assay type: cell-based; details: compound at 30 μM, absence of SNP
Procedure, shortened: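 HEK293 cells with endogenous sGC, preincubated 15 min at 37° C with 0.5 mM IBMX, then exposed to test compound 10 min at 37° C without SNP. Cells lysed in 0.1 M HCl; cGMP quantified by LC/MS against a standard curve. EC50 from concentration-response curves.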

[2] = target: T1, soluble guanylate cyclase (sGC); assay: sGC-HEK-cGMP assay run with SNP incubation (HEK WC assay); assay type: cell-based; details: for HEK WC Assay (fold increase at 30 μM in the presence of 10 μM SNP): compound at 30 μM; for EC50: in the presence of 10 uM SNP
Procedure, shortened: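 HEK293 cells with endogenous sGC were pretreated with 0.5 mM IBMX for 15 min at 37 °C, then exposed to test compound plus sodium nitroprusside for 10 min at 37 °C.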

Thoracic aortic rings = assay: Alternative thoracic aortic rings assay (Example 19b; resting tension as 100% inhibition); set-up: species or system rat; details: Rattus norvegicus, Table 10B; for inhibition at 1 µM: read-out: Percent Relaxation at 1 μM; for inhibition at 3 µM: read-out: Percent Relaxation at 3 μM; for inhibition at 10 µM: read-out: Percent Relaxation at 10 μM; for EC50: read-out: Aortic Ring EC50
Procedure: Thoracic aortic rings were dissected from anesthetized (isoflurane) male Sprague-Dawley rats weighing 275-299 g. Tissues were immediately transferred to ice-cold Krebs-Henseleit solution, which had been aerated with 95% O2 and 5% CO2 for 30 minutes. Following removal of connective tissue, aortic sections were cut into 4 rings (˜2 mm each) and suspended on 2 L-shaped hooks, with one hook fixed at the bottom of the tissue bath (Schuler Organ Bath, Harvard Apparatus) and the other connected to a force transducer (F30 Force Transducer, Harvard Apparatus). Baths contained Krebs Henseleit solution (10 mL) heated to 37° C. and aerated with 95% O2 and 5% CO2. Rings were brought to an initial tension of 0.3-0.5 g and gradually raised to a resting tension of 1.0 g over 60 minutes. Rings were rinsed with Krebs Henseleit solution (heated to 37° C. and aerated with 95% O2 and 5% CO2) at 15 minute intervals until a stable baseline was obtained. Rings were considered to be stable after a resting tension of 1.0 g was maintained (for approximately 10 minutes) without need for adjustment. Rings were then contracted with 100 ng/mL phenylephrine by adding 100 uL of a 10 μg/mL phenylephrine stock solution. Tissues achieving a stable contraction were then treated in a cumulative, dose dependent manner with test compounds prepared in dimethylsulfoxide (DMSO). In some cases, tissues were rinsed three times over a 5 minute period with Krebs-Heinseleit's solution (heated to 37° C. and aerated with 95% O2 and 5% CO2), allowed to stabilize at baseline, and then used for characterization of other test articles or DMSO effects. All data were collected using the HSE-ACAD software provided by Harvard Apparatus. […] EC50 values were calculated from concentration-response curves generated with GraphPad Prism Software.

[3] = read-out: HEK WC Assay (% Emax at 10 μM with 10 uM SNP)
[4] = read-out: HEK WC Assay (% Emax at 30 μM with 10 uM SNP)
[5] = read-out: HEK WC Assay (% Emax at 1 μM with 10 uM SNP)

T1 sequence (Q02153 whole entry): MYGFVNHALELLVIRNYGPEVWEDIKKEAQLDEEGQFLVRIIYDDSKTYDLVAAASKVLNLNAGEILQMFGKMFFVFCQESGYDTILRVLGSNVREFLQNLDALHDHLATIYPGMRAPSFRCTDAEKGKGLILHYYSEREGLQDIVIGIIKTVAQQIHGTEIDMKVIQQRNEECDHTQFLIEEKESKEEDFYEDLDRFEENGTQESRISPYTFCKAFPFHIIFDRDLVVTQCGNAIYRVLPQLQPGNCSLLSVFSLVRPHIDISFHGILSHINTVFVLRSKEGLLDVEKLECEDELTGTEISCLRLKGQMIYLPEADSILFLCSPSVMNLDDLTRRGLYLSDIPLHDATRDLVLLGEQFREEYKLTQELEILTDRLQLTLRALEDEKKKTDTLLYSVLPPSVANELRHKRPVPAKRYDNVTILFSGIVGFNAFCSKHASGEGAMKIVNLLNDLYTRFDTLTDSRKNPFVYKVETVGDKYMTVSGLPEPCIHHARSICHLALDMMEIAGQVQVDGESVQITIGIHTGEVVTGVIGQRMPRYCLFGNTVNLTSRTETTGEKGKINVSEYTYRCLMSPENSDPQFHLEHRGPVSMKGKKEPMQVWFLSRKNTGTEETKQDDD
T1 sequence (Q02108 whole entry): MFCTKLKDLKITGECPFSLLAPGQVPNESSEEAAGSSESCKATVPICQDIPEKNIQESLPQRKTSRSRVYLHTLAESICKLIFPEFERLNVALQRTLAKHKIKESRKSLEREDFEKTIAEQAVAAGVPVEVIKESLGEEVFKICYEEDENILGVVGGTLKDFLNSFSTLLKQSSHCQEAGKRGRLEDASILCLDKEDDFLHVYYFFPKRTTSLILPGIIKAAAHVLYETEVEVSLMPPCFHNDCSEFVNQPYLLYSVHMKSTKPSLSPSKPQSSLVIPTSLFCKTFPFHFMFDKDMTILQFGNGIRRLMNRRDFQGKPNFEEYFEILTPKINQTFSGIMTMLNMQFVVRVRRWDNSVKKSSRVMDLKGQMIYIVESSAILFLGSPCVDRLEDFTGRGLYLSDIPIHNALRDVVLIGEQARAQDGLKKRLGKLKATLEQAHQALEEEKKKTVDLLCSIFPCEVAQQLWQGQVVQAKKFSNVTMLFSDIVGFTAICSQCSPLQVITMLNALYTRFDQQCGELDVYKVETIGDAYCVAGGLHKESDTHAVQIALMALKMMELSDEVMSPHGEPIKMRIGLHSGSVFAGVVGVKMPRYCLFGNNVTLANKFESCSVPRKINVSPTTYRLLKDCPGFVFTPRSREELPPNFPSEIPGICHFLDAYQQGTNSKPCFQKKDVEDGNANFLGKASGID

SMILES	HEK WC Assay (fold increase at 30 μM in the absence of SNP) [1]	HEK WC Assay (fold increase at 30 μM in the presence of 10 μM SNP) [2]	EC50 [2]	Emax [2, 3]	Emax [2, 4]	inhibition at 1 µM (Thoracic aortic rings)	inhibition at 3 µM (Thoracic aortic rings)	inhibition at 10 µM (Thoracic aortic rings)	EC50 (Thoracic aortic rings)	Emax [2, 5]
Nc1nc(-c2cc(-c3ccon3)n(Cc3ccccc3F)n2)ncc1NC(=O)OCCCl [Compound I-152]	E (E = 10 to <20 fold increase)	E (E = 10 to <20 fold increase)	< 20 µM	60 to 80%	40 to 60%	60 to 80%	80 to 100%	100 to 120%	< 2 µM	–
Nc1nc(-c2cc(-c3ccon3)n(Cc3ccccc3F)n2)ncc1N1CCOC1=O [Compound I-153]	C (C = 2 to <5 fold increase)	D (D = 5 to <10 fold increase)	< 20 µM	40 to 60%	60 to 80%	60 to 80%	60 to 80%	80 to 100%	< 2 µM	–
O=C(Nc1cnc(-c2cc(-c3ccon3)n(Cc3ccccc3F)n2)nc1O)c1ccccc1 [Compound I-158]	C (C = 2 to <5 fold increase)	–	100 to 300 µM	20 to 40%	20 to 40%	10 to 20%	40 to 60%	80 to 100%	4 to 8 µM	0 to 10%
Nc1nc(-c2cc(-c3ccon3)n(Cc3ccccc3F)n2)ncc1NC(=O)c1ccccn1 [Compound I-162]	E (E = 10 to <20 fold increase)	G (G = 30 to <40 fold increase)	< 20 µM	80 to 100%	60 to 80%	100 to 120%	> 120%	–	< 2 µM	–
CC(C)C(=O)Nc1cnc(-c2cc(-c3ccon3)n(Cc3ccccc3F)n2)nc1N [Compound I-165]	D (D = 5 to <10 fold increase)	F (F = 20 to <30 fold increase)	< 20 µM	80 to 100%	100 to 120%	60 to 80%	80 to 100%	100 to 120%	< 2 µM	40 to 60%
COc1ccccc1C(=O)Nc1cnc(-c2cc(-c3ccon3)n(Cc3ccccc3F)n2)nc1N [Compound I-166]	D (D = 5 to <10 fold increase)	G (G = 30 to <40 fold increase)	< 20 µM	80 to 100%	100 to 120%	40 to 60%	80 to 100%	100 to 120%	< 2 µM	60 to 80%
Nc1nc(-c2cc(-c3ccon3)n(Cc3ccccc3F)n2)ncc1NC(=O)c1ccc(F)cc1 [Compound I-168]	E (E = 10 to <20 fold increase)	G (G = 30 to <40 fold increase)	< 20 µM	100 to 120%	100 to 120%	60 to 80%	100 to 120%	100 to 120%	< 2 µM	100 to 120%
Nc1nc(-c2cc(-c3ccon3)n(Cc3ccccc3F)n2)ncc1N1CCCC1=O [Compound I-169]	C (C = 2 to <5 fold increase)	D (D = 5 to <10 fold increase)	< 20 µM	40 to 60%	60 to 80%	40 to 60%	80 to 100%	–	< 2 µM	20 to 40%
Nc1nc(-c2cc(-c3ccon3)n(Cc3ccccc3F)n2)ncc1NC(=O)c1ccccc1F [Compound I-172]	E (E = 10 to <20 fold increase)	E (E = 10 to <20 fold increase)	< 20 µM	60 to 80%	80 to 100%	80 to 100%	100 to 120%	100 to 120%	< 2 µM	80 to 100%
COc1cccc(C(=O)Nc2cnc(-c3cc(-c4ccon4)n(Cc4ccccc4F)n3)nc2N)c1 [Compound I-174]	E (E = 10 to <20 fold increase)	F (F = 20 to <30 fold increase)	< 20 µM	80 to 100%	100 to 120%	80 to 100%	80 to 100%	–	< 2 µM	60 to 80%
Nc1nc(-c2cc(-c3ccon3)n(Cc3ccccc3F)n2)ncc1NC(=O)c1ccncc1 [Compound I-176]	E (E = 10 to <20 fold increase)	E (E = 10 to <20 fold increase)	< 20 µM	60 to 80%	60 to 80%	80 to 100%	100 to 120%	–	< 2 µM	20 to 40%
COCC(=O)Nc1cnc(-c2cc(-c3ccon3)n(Cc3ccccc3F)n2)nc1N [Compound I-177]	D (D = 5 to <10 fold increase)	E (E = 10 to <20 fold increase)	< 20 µM	80 to 100%	80 to 100%	80 to 100%	80 to 100%	–	< 2 µM	40 to 60%
Nc1nc(-c2cc(-c3ccon3)n(Cc3ccccc3F)n2)ncc1Nc1nccs1 [Compound I-178]	E (E = 10 to <20 fold increase)	E (E = 10 to <20 fold increase)	< 20 µM	80 to 100%	60 to 80%	60 to 80%	100 to 120%	100 to 120%	< 2 µM	40 to 60%
